Laboratory results reported in article PMC4457528, “Identification of Novel Small Molecule Inhibitors of Oncogenic RET Kinase” (PLoS ONE, 2015).
Read-outs that look alike come from different tables or passages of the source.

Legend:
Assay in all cases: KinomeScan kinase panel, single concentration 10 µM
Type in all cases: binding
[1] = target: T1, KinomeScan kinase panel (Homo sapiens, UniProt P00533, DEL746-750)
T1 construct: purchased DiscoveRx (KinomeScan)

[2] = target: T2, KinomeScan kinase panel (Homo sapiens, UniProt P27037); conditions: ACVR2A, 10 µM; read-out: score (%)
T2 construct: purchased DiscoveRx (KinomeScan)

[3] = target: T3, KinomeScan kinase panel (Homo sapiens, UniProt P29376); conditions: LTK, 10 µM; read-out: score (%)
T3 construct: purchased DiscoveRx (KinomeScan)

[4] = target: T4, KinomeScan kinase panel (Homo sapiens, UniProt P43403); conditions: kinase ZAP70; 10 µM; read-out: score (%)
T4 construct: purchased DiscoveRx (KinomeScan)
T4 sequence (P43403 1-619): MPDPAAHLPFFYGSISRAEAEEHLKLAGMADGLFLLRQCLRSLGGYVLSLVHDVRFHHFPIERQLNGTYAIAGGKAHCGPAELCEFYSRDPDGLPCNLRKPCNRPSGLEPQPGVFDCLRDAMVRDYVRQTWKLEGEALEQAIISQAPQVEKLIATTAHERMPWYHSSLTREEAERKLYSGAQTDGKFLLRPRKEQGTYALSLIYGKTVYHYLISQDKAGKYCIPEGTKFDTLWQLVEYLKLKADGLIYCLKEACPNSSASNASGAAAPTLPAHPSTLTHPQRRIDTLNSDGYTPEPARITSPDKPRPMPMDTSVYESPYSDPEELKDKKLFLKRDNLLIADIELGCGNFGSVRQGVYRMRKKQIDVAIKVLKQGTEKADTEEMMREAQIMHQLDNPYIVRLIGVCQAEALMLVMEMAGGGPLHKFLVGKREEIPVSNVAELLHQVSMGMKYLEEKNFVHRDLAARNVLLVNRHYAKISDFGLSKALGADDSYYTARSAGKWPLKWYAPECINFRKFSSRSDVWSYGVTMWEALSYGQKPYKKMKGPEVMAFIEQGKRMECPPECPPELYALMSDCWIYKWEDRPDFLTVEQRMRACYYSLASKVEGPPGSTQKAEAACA

[5] = target: T5, KinomeScan kinase panel (Homo sapiens, UniProt P49336); conditions: CDK8, 10 µM
T5 construct: purchased DiscoveRx (KinomeScan)

[6] = target: T6, KinomeScan kinase panel (Homo sapiens, UniProt Q15139); conditions: read-out: score (%)
T6 construct: purchased DiscoveRx (KinomeScan)
T6 sequence (Q15139 1-912): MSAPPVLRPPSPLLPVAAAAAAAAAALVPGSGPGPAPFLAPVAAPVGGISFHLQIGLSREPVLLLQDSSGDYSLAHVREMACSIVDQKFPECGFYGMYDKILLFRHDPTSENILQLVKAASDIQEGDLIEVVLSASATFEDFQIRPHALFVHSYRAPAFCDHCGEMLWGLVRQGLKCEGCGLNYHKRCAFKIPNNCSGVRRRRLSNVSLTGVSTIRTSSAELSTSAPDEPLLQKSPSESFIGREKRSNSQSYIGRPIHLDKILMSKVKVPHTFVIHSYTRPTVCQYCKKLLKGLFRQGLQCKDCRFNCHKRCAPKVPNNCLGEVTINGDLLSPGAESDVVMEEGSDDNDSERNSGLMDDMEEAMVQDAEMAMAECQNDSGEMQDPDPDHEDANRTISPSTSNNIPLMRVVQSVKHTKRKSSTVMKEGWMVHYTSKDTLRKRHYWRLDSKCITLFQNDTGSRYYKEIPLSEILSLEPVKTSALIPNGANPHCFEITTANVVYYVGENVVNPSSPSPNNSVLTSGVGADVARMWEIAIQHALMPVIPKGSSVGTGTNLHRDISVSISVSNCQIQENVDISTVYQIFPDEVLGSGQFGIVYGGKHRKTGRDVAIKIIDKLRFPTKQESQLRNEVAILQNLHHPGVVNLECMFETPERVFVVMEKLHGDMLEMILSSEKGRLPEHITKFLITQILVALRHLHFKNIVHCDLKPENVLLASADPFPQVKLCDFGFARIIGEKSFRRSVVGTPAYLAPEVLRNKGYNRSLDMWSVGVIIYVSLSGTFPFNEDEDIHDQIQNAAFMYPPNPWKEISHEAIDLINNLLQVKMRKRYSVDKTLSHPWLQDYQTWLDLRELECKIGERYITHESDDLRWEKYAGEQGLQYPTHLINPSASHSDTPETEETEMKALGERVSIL

[7] = target: T7, KinomeScan kinase panel (Homo sapiens, UniProt Q5VT25); conditions: MRCKA, 10 µM; read-out: score (%)
T7 construct: purchased DiscoveRx (KinomeScan)

[8] = target: T8, KinomeScan kinase panel (Homo sapiens, UniProt Q8IWQ3); conditions: BRSK2, 10 µM; read-out: score (%)
T8 construct: purchased DiscoveRx (KinomeScan)
T8 sequence (Q8IWQ3 1-736): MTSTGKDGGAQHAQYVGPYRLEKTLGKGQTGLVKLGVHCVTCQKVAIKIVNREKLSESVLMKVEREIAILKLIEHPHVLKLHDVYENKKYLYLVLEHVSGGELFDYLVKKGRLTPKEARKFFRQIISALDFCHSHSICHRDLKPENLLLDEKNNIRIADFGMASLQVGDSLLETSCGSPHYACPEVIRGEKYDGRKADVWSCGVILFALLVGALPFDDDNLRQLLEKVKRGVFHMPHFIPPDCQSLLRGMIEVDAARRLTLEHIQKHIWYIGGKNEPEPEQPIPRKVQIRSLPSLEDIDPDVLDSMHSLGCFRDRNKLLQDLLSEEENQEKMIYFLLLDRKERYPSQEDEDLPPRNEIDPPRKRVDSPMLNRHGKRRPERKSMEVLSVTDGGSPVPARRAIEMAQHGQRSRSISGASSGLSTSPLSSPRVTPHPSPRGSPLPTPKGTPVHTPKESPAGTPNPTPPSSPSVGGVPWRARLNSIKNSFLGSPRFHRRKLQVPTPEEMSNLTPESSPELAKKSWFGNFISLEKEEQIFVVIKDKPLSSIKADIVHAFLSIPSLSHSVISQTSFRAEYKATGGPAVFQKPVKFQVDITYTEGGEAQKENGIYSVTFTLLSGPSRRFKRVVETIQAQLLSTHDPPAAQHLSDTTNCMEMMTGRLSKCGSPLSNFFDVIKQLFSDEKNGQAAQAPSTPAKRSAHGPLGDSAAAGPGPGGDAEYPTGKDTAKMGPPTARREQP

T5 sequence (P49336 whole entry): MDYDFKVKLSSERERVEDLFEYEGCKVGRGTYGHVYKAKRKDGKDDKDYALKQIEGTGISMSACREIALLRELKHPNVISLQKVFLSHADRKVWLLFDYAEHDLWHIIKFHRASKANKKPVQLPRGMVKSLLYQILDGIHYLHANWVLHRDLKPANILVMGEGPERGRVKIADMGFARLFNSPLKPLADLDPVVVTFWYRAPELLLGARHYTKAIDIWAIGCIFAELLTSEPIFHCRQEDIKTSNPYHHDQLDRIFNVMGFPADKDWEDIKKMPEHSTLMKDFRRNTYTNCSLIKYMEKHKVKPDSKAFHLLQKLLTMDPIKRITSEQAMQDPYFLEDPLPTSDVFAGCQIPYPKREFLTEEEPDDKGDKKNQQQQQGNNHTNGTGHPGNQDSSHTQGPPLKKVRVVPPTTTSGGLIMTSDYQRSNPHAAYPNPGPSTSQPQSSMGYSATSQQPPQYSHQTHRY
T3 sequence (P29376 17-864): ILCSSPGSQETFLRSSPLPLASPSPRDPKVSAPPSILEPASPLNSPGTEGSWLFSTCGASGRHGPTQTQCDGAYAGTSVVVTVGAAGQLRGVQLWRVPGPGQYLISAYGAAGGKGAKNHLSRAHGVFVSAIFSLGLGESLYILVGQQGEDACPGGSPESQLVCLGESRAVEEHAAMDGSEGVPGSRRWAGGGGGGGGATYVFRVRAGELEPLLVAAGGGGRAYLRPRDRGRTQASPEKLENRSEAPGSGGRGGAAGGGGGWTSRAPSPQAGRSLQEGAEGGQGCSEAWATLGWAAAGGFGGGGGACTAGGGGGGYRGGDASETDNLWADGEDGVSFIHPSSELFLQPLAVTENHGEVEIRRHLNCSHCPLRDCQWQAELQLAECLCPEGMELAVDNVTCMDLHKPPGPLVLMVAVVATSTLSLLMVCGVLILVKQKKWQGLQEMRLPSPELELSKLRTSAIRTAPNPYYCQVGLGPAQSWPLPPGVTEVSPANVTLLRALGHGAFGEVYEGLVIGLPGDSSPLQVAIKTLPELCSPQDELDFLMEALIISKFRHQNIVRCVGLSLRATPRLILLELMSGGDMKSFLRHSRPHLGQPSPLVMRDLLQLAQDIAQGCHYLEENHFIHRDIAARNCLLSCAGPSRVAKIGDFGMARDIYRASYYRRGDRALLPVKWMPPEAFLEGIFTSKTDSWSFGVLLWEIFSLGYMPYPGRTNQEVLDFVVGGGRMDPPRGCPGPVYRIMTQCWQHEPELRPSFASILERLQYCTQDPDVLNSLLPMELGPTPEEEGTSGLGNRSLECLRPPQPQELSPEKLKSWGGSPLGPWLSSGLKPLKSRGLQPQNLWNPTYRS
T7 sequence (Q5VT25 whole entry): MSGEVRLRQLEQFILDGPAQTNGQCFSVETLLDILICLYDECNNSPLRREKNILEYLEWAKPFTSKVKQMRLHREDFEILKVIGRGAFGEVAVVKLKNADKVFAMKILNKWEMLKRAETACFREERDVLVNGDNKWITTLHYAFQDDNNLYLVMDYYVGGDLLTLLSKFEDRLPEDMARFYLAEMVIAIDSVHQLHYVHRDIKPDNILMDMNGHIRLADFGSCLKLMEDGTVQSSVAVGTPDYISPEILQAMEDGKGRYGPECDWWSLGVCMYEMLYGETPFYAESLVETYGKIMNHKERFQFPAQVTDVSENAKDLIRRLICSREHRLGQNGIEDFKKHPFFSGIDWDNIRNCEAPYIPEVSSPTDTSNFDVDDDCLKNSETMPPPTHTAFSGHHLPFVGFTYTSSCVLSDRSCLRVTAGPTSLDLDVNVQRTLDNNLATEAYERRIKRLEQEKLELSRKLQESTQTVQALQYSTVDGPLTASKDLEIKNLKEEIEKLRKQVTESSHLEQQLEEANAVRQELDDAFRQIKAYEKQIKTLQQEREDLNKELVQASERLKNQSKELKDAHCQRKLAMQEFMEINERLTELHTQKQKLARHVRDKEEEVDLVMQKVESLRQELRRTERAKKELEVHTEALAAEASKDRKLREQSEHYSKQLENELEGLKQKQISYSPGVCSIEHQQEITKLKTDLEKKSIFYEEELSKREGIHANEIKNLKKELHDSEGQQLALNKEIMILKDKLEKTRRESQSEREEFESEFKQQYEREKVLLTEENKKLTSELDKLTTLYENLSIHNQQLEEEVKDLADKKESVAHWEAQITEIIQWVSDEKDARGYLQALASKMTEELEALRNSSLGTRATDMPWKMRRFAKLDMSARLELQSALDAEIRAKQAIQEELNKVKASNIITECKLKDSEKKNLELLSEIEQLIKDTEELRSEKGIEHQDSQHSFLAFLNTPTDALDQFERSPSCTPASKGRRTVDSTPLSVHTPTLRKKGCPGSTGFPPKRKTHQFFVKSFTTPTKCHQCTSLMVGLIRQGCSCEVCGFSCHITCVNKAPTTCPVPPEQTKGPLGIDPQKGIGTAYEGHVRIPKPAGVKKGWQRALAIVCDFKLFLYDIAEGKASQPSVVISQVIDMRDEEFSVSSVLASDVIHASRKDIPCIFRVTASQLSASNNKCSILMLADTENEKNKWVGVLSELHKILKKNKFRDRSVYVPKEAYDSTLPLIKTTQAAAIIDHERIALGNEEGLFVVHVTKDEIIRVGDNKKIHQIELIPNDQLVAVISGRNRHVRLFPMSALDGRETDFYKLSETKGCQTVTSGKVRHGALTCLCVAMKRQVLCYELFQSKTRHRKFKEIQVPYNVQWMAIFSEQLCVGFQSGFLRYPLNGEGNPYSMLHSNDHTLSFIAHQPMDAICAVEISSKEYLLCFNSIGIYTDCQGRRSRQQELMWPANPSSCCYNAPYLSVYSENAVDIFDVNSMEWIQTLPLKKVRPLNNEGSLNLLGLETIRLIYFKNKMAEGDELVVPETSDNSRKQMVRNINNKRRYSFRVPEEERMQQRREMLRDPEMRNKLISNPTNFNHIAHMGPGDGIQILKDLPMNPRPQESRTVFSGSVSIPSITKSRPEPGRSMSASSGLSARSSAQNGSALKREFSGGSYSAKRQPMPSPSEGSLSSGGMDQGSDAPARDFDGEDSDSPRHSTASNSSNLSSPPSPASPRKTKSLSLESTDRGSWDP
T1 sequence (P00533 with tags, fused parts or gaps DEL746-750): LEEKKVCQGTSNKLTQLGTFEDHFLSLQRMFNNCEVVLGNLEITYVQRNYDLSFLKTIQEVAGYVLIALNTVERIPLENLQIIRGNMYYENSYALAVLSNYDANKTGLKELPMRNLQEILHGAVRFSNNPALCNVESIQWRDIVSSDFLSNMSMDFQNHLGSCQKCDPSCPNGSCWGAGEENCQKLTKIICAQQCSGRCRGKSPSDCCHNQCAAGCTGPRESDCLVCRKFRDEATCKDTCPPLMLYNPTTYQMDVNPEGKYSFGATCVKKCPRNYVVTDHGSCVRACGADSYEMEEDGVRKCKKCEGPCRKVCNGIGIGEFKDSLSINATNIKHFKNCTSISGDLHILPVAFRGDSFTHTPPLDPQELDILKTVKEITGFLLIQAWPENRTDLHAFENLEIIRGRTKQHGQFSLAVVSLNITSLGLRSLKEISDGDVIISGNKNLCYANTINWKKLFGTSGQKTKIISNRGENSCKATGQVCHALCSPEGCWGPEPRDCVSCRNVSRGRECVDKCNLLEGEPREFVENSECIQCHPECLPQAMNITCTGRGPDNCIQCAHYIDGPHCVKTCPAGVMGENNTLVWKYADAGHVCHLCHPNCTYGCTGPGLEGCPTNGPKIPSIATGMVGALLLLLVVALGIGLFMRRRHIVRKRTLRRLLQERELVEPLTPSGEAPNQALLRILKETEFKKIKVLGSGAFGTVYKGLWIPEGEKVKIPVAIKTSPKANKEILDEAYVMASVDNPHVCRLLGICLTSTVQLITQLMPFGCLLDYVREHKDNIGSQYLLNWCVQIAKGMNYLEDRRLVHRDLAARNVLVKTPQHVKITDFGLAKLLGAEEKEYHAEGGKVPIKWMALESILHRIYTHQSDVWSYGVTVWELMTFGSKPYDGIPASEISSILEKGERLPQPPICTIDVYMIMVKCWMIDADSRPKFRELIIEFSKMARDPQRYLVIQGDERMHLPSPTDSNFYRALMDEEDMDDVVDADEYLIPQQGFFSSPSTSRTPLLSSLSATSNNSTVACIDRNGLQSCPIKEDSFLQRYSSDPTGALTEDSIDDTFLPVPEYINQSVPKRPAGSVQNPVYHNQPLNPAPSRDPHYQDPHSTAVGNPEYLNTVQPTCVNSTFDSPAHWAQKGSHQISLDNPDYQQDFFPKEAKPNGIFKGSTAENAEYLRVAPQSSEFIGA
T2 sequence (P27037 20-513): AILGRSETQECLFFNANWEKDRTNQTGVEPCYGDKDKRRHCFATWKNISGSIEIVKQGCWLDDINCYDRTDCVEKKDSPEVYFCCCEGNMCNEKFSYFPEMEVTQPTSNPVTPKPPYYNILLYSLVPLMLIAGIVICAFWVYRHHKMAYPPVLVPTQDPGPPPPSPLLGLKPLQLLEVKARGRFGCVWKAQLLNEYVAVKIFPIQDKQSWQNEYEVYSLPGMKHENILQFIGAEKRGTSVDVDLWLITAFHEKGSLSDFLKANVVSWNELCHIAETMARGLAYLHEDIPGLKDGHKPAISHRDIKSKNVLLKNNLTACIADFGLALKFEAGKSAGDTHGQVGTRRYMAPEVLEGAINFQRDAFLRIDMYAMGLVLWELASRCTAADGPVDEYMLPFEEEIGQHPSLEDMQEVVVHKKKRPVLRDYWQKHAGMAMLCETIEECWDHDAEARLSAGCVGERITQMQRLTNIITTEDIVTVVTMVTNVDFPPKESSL

Row | SMILES | score (%) [1] [%] | remaining binding at 10 µM [2] [%] | remaining binding at 10 µM [3] [%] | remaining binding at 10 µM [4] [%] | score (%) [5] [%] | remaining binding at 10 µM ([6]; PRKD1, 10 µM) [%] | remaining binding at 10 µM [7] [%] | remaining binding at 10 µM [8] [%] | score (%) ([1]; EGFR(E746-A750del), 10 µM) | remaining binding at 10 µM ([6]; kinase PRKD1, 10 µM) [%]
1 | CCN1CCN(Cc2ccc(NC(=O)c3ccc(C)c(NC(=O)c4cncc(-c5cccs5)c4)c3)cc2C(F)(F)F)CC1 [ALW-II-41-27] | 1.2 | > 30 | > 30 | > 30 | 20 | > 30 | > 30 | > 30 |  | 
2 | CCN1CCN(Cc2ccc(NC(=O)c3ccc(C)c(/C=C/c4cnc5[nH]ccc5c4Cl)c3)cc2C(F)(F)F)CC1 [HG-6-63-01, (E)-3-(2-(4-chloro-1H-pyrrolo[2,3-b]pyridin-5-yl)vinyl)-N-(4-((4-ethylpiperazin-1-yl)methyl)-3-(trifluoromethyl)phenyl)-4-methylbenzamide] |  | > 30 | > 30 | > 30 | 9.6 | > 30 | 12 | > 30 | 0.9 | 
3 | CCN1CCN(Cc2ccc(NC(=O)c3ccc(C)c(C#Cc4cccnc4)c3)cc2C(F)(F)F)CC1 [XMD15-44] |  | > 30 | 4.5 | 62 | 8.2 |  | > 30 | > 30 | 1.8 | 51
